Source: patent publication US20220168309A1 (F-STAR THERAPEUTICS, INC., priority 2019, published 2022)
Where two headings read alike, the source gives them in different places.

Target: STING (Homo sapiens, UniProt Q86WV6)
Test: STING antagonist activity, cell-based ISG54 promoter-reporter luciferase measurement of IRF activity (THP-1 dual / RAW-ISG cells)
Settings: Antagonist Activity of Exemplary Compounds, cell line and agonist not given
Experimental: THP-1 dual cells (InvivoGen) were cultured under 5% CO2 at 37° C. in RPMI containing 10% fetal bovine serum (FBS), 100 IU mL-1 penicillin and 100 μg mL-1 streptomycin. RAW-ISG cells (InvivoGen) were cultured under 5% CO2 at 37° C. in DMEM containing 10% fetal bovine serum (FBS), 100 IU mL-1 penicillin and 100 μg mL-1 streptomycin. THP-1 dual cells were seeded into the 96 well assay plate on the day of assay whereas RAW cells were seeded into the 96 well assay plate 18 hours before the assay.
(§1) 50,000 cells seeded in a 96-well flat bottom white assay plate were treated with different concentrations (10 uM to 0.01 uM) of compounds for 1 h followed by STING induction with either 30 nM SB 11285 or 10 ug/mL 2′-3′ cGAMP. The cells were then incubated for 20 hours @ 37° C. in CO2 incubator before measuring IRF activation by using Quanti-Luc (InvivoGen). The % inhibition was calculated as 100−{[(luminescence of COI treated well/luminescence of non-COI treated well)/100]×100}. IC50 was calculated by plotting in Xlfit.
as §1, with “1 μM” for “30 nM”
THP1-Dual-WT cells (InvivoGen) were plated into 96-well flat bottom plate at 5×10^4 cells/140 μL/well in triplicate. Cells were then treated with diluted antagonist compounds at 10 μL/well for 1 h, followed by treatment with compounds or 2′3′-cGAMP/lipo mixture for 18 h. The levels of IRF activity were determined using Quanti-luc (InvivoGen) and calculated against IRF activity in DMSO-treated cells. IC50 and CC50 values were calculated using Xlfit.

Sequence of STING (Q86WV6 whole entry): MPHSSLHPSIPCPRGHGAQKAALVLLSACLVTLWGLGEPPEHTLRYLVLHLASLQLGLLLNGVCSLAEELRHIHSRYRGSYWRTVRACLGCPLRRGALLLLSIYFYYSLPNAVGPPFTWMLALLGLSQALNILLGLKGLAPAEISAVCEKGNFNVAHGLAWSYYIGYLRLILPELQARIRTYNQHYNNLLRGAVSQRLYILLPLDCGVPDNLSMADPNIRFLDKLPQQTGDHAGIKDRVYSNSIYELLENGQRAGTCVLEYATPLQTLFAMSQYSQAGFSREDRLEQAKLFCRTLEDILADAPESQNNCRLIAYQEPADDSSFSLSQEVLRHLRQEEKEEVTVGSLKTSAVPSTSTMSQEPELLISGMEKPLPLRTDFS

Compound | IC50 (read-out: IC50) | IC50
Cc1nc2c(Cl)nc(Cl)nc2n1CCCCCCCCCCCCCCCCO [Compound 76, 16-(2,6-dichloro-8-methyl-9H-purin-9-yl)hexadecan-1-ol] | 5 to 10 µM | –
CCCCCCCCCCCCCCCCn1c(C)nc2nc(Cl)nc(Cl)c21 [Compound 77, 2,6-dichloro-7-hexadecyl-8-methyl-7H-purine] | 0.001 to 1 µM | –
CCOC(=O)CCCCCCCCCCCCCCCn1c(C)nc2nc(Cl)nc(Cl)c21 [Compound 78, ethyl 16-(2,6-dichloro-8-methyl-7H-purin-7-yl)hexadecanoate] | 0.001 to 1 µM | –
Cc1nc2nc(Cl)nc(Cl)c2n1CCCCCCCCCCCCCCCC(=O)OC(C)C [Compound 79, isopropyl 16-(2,6-dichloro-8-methyl-7H-purin-7-yl)hexadecanoate] | 0.001 to 1 µM | –
COC(=O)CCCC(=O)N1CNc2nc(Cl)nc(Cl)c21 [Compound 80, methyl 5-(2,6-dichloro-8,9-dihydro-7H-purin-7-yl)-5-oxopentanoate] | > 20 µM | –
Cc1nc2nc(Cl)nc(Cl)c2n1CCCCCCCCCCCCCCCC(=O)OC(C)(C)C [Compound 81, tert-butyl 16-(2,6-dichloro-8-methyl-7H-purin-7-yl)hexadecanoate] | 1 to 5 µM | –
Cc1nc2nc(Cl)nc(Cl)c2n1C [Compound 82, 2,6-dichloro-7,8-dimethyl-7H-purine] | 5 to 10 µM | –
Cc1nc2c(Cl)nc(Cl)nc2n1C [Compound 83, 2,6-dichloro-8,9-dimethyl-9H-purine] | > 20 µM | –
Cc1nc2nc(Cl)nc(Cl)c2n1CCCCCCCCCCCCCCCC(=O)OCCO [Compound 84, 2-hydroxyethyl 16-(2,6-dichloro-8-methyl-7H-purin-7-yl)hexadecanoate] | 1 to 5 µM | –
Cc1nc2nc(Cl)nc(Cl)c2n1CCCCCCCCCCCCCCCC(=O)OCC(O)CO (stereo not drawn) [Compound 85, 2,3-dihydroxypropyl 16-(2,6-dichloro-8-methyl-7H-purin-7-yl)hexadecanoate] | 1 to 5 µM | –
Cc1nc2nc(Cl)nc(Cl)c2n1CCCCCCCCCCCCCCCC(=O)N1CCNCC1 [Compound 87, 16-(2,6-dichloro-8-methyl-7H-purin-7-yl)-1-(piperazin-1-yl)hexadecan-1-one] | 10 to 20 µM | –
O=P(O)(O)OCCCCCCCCCCCCCCCCn1cnc2nc(Cl)nc(Cl)c21 [Compound 88, 16-(2,6-dichloro-7H-purin-7-yl)hexadecyl dihydrogen phosphate] | > 20 µM | –
COC(=O)CCCCCCCCCCCCCCCn1c(C(C)C)nc2nc(Cl)nc(Cl)c21 [Compound 89, methyl 16-(2,6-dichloro-8-isopropyl-7H-purin-7-yl)hexadecanoate] | 0.001 to 1 µM | –
N#CCCOP(O)(=S)OCCCCCCCCCCCCCCCCn1cnc2nc(Cl)nc(Cl)c21 (stereo not drawn) [Compound 90, O-(2-cyanoethyl)O-(16-(2,6-dichloro-7H-purin-7-yl)hexadecyl) O-hydrogen phosphorothioate] | – | 5 to 10 µM
COC(=O)CCCCCCCCCCCCCCCn1c(CCl)nc2nc(Cl)nc(Cl)c21 [Compound 91, Methyl 16-(2,6-dichloro-8-(chloromethyl)-7H-purin-7-yl)hexadecanoate] | 0.001 to 1 µM | –
COCc1nc2nc(Cl)nc(Cl)c2n1CCCCCCCCCCCCCCCC(=O)OC [Compound 92, Methyl 16-(2,6-dichloro-8-(methoxymethyl)-7H-purin-7-yl)hexadecanoate] | 0.001 to 1 µM | –
COC(=O)CCCCCCCCCCCCCCCn1c(CO)nc2nc(Cl)nc(Cl)c21 [Compound 93, Methyl 16-(2,6-dichloro-8-(hydroxymethyl)-7H-purin-7-yl)hexadecanoate] | 0.001 to 1 µM | –

Compound | IC50 (read-out: IC50) | IC50
CNC(=O)CCCCCCCCCCCCCCCn1c(C)nc2nc(Cl)nc(Cl)c21 [Compound 94, 16-(2,6-dichloro-8-methyl-7H-purin-7yl)-N-methylhexadecanamide] | 0.001 to 1 µM | –
Cc1nc2nc(Cl)nc(S(=O)(=O)C(C)C)c2n1CCCCCCCCCCCCCCCC(=O)OC(C)C [Compound 96, isopropyl 16-(2-chloro-6-(isopropylsulfonyl)-8-methyl-7H-purin-7-yl)hexadecanoate] | 0.001 to 1 µM | –
CCCCCCCCCCCCCCCCn1c(C)nc2nc(Cl)nc(S(=O)(=O)C(C)C)c21 [Compound 97, 2-chloro-7-hexadecyl-6-(isopropylsulfonyl)-8-methyl-7H-purine] | 0.001 to 1 µM | –
Cc1nc2nc(Cl)nc(Cl)c2n1CCCCCCCCCCCCCCCC(=O)OCC(C)O (stereo not drawn) [Compound 98, 2-hydroxypropyl 16-(2,6-dichloro-8-methyl-7H-purin-7-yl)hexadecanoate] | 1 to 5 µM | –
CCOCCOCCOC(=O)CCCCCCCCCCCCCCCn1c(C)nc2nc(Cl)nc(Cl)c21 [Compound 99, 2-(2-ethoxyethoxy)ethyl 16-(2,6-dichloro-8-methyl-7H-purin-7-yl)hexadecanoate] | 1 to 5 µM | –
Cc1nc2c(Cl)nc(Cl)nc2n1CCCCCCCCCCCCCCCc1nnnn1C [Compound 100, 2,6-dichloro-8-methyl-9-(15-(1-methyl-1H-tetrazol-5-yl)pentadecyl)-9H-purine] | 5 to 10 µM | –
Cc1nc2nc(Cl)nc(Cl)c2n1CCCCCCCCCCCCCCCc1nnnn1C [Compound 101, 2,6-dichloro-8-methyl-7-(15-(1-methyl-1H-tetrazol-5-yl)pentadecyl)-7H-purine] | 0.001 to 1 µM | –
Cc1nc2nc(Cl)nc(Cl)c2n1CCCCCCCCCCN1CCOCC1 [Compound 102, 4-(10-(2,6-dichloro-8-methyl-7H-purin-7-yl)decyl)morpholine] | 0.001 to 1 µM | –
Cc1nc2nc(Cl)nc(Cl)c2n1C/C=C/Cn1c(C)nc2nc(Cl)nc(Cl)c21 [Compound 103, (E)-1,4-bis(2,6-dichloro-8-methyl-7H-purin-7-yl)but-2-ene] | 5 to 10 µM | –
Cc1nc2nc(Cl)nc(Cl)c2n1CCCCCCCCCCCCCCCC(=O)OC[C@H](O)CO [Compound 104, (R)-2,3-dihydroxypropyl 16-(2,6-dichloro-8-methyl-7H-purin-7-yl)hexadecanoate] | 0.001 to 1 µM | –
Cc1nc2nc(Cl)nc(Cl)c2n1CCCCCCCCCCCCCCCCN1CCOCC1 [Compound 105, 4-(16-(2,6-dichloro-8-methyl-7H-purin-7-yl)hexadecyl)morpholine] | 0.001 to 1 µM | –
Cc1nc2nc(Cl)nc(Cl)c2n1CCCCCCCCCCCCCCCC(=O)OC(CO)CO [Compound 106, 1,3-dihydroxypropan-2-yl 16-(2,6-dichloro-8-methyl-7H-purin-7-yl)hexadecanoate] | 1 to 5 µM | –
Cc1nc2nc(Cl)nc(Cl)c2n1CCCCCCCCCCCCCCCC(=O)OC[C@@H](O)CO [Compound 107, (S)-2,3-dihydroxypropyl 16-(2,6-dichloro-8-methyl-7H-purin-7-yl)hexadecanoate] | 1 to 5 µM | –
COC(=O)CCCCCCCCCCCCCCCn1c(C)nc2nc(Cl)nc(OCCN(C)C)c21 [Compound 108, methyl 16-(2-chloro-6-(2-(dimethylamino)ethoxy)-8-methyl-7H-purin-7-yl)hexadecanoate] | 1 to 5 µM | –
Cc1nc2nc(Cl)nc(S(C)(=O)=O)c2n1CCCCCCCCCCCCCCCC(=O)OC(C)C [Compound 109, isopropyl 16-(2-chloro-8-methyl-6-(methylsulfonyl)-7H-purin-7-yl)hexadecanoate] | 0.001 to 1 µM | –
Cc1nc2nc(Cl)nc(Cl)c2n1CCCCCCCCCCCCCCCCP(=O)(O)O [Compound 110, (16-(2,6-dichloro-8-methyl-7H-purin-7-yl)hexadecyl)phosphonic acid] | > 20 µM | –
